# Measurements published in ChEMBL document CHEMBL2016576, “Design, synthesis and structure-activity-relationship of 1,5-tetrahydronaphthyridines as CETP inhibitors” (Bioorg Med Chem Lett, 2012).
# Biological target: T1, Cholesteryl ester transfer protein (Homo sapiens, UniProt P11597)
# T1 sequence (P11597 whole entry): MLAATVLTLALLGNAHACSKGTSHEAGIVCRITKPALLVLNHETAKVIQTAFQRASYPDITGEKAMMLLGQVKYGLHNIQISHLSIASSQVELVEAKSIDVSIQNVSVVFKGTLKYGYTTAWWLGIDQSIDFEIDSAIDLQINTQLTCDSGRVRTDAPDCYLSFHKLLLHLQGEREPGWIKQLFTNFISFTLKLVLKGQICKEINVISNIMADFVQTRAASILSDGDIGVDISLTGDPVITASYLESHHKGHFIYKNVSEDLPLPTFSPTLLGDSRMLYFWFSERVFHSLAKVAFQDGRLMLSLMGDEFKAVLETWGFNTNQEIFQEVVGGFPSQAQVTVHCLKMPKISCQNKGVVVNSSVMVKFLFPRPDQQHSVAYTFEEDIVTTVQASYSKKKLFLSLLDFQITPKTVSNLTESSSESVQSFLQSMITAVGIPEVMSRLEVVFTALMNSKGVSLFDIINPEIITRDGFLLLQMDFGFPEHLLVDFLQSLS
# Experiment: Inhibition of CETP in human plasma assessed as reduction in fluorescent intensity by fluorescence analysis
row,Structure (SMILES),IC50 [nM]
1,CCC1CC(N(Cc2cc(C(F)(F)F)cc(C(F)(F)F)c2)C(C)=O)c2sccc2N1C(=O)OC(C)C (stereo not given),46000
2,CCC1CC(N(Cc2cc(C(F)(F)F)cc(C(F)(F)F)c2)C(C)=O)c2ccc(C)nc2N1C(=O)OC(C)C (stereo not given),44100
3,CC[C@H]1C[C@@H](N(Cc2cc(C(F)(F)F)cc(C(F)(F)F)c2)c2nnn(C)n2)c2nc(C(F)(F)F)ccc2N1C(=O)OC(C)C,7420
4,CC[C@H]1C[C@@H](N(Cc2cc(C(F)(F)F)cc(C(F)(F)F)c2)c2nnn(C)n2)c2nc(C)ccc2N1C(=O)OC(C)C,50000
5,CCNc1ccc2c(n1)[C@@H](N(Cc1cc(C(F)(F)F)cc(C(F)(F)F)c1)c1nnn(C)n1)C[C@@H](CC)N2C(=O)OC(C)C,591
6,CC[C@@H]1C[C@H](N(Cc2cc(C(F)(F)F)cc(C(F)(F)F)c2)c2nnn(C)n2)c2nc(N3CCCC3)ccc2N1C(=O)OC(C)C,471
7,CC[C@@H]1C[C@H](N(Cc2cc(C(F)(F)F)cc(C(F)(F)F)c2)c2nnn(C)n2)c2nc(N3CCOCC3)ccc2N1C(=O)OC(C)C,25000
8,CC[C@@H]1C[C@H](N(Cc2cc(C(F)(F)F)cc(C(F)(F)F)c2)c2nnn(C)n2)c2nc(N3CCNCC3)ccc2N1C(=O)OC(C)C,> 50000
9,CC[C@@H]1C[C@H](N(Cc2cc(C(F)(F)F)cc(C(F)(F)F)c2)c2nnn(C)n2)c2nc(C(F)(F)F)ccc2N1C(=O)OCCN(C)C,572
10,CC[C@@H]1C[C@H](N(Cc2cc(C(F)(F)F)cc(C(F)(F)F)c2)c2nnn(C)n2)c2nc(C(F)(F)F)ccc2N1C(=O)OCCc1nn[nH]n1,488
11,CC[C@@H]1C[C@H](N(Cc2cc(C(F)(F)F)cc(C(F)(F)F)c2)c2nnn(C)n2)c2nc(C(F)(F)F)ccc2N1C(=O)OCCN1CCOCC1,2110
12,CC[C@@H]1C[C@H](N(Cc2cc(C(F)(F)F)cc(C(F)(F)F)c2)c2nnn(C)n2)c2nc(C(F)(F)F)ccc2N1C(=O)OCCN1CCN(C)CC1,5730
13,CC[C@@H]1C[C@H](N(Cc2cc(C(F)(F)F)cc(C(F)(F)F)c2)c2nnn(C)n2)c2nc(C(F)(F)F)ccc2N1CCC(C)C,825
14,CC[C@@H]1C[C@H](N(Cc2cc(C(F)(F)F)cc(C(F)(F)F)c2)C(C)=O)c2nc(OC)ccc2N1C(=O)OC(C)C (racemic),487
15,CC[C@@H]1C[C@H](N(Cc2cc(C(F)(F)F)cc(C(F)(F)F)c2)C(C)=O)c2nc(C(F)(F)F)ccc2N1C(=O)OC(C)C (racemic),396
16,CC[C@@H]1C[C@H](N(Cc2cc(C(F)(F)F)cc(C(F)(F)F)c2)C(C)=O)c2nc(Br)ccc2N1C(=O)OC(C)C (racemic),1300
17,CC[C@@H]1C[C@H](N(Cc2cc(C(F)(F)F)cc(C(F)(F)F)c2)C(C)=O)c2nc(C)ccc2N1C(=O)OC(C)C (racemic),980
18,CC[C@@H]1C[C@H](N(Cc2cc(C(F)(F)F)cc(C(F)(F)F)c2)C(C)=O)c2nc(N(C)C)ccc2N1C(=O)OC(C)C (racemic),948
19,CC(=O)N(Cc1cc(C(F)(F)F)cc(C(F)(F)F)c1)[C@H]1C[C@@H](C)N(C(=O)OC(C)C)c2ccc(C(F)(F)F)nc21 (racemic),1050
20,CC(=O)N(Cc1cc(C(F)(F)F)cc(C(F)(F)F)c1)[C@H]1C[C@@H](C2CC2)N(C(=O)OC(C)C)c2ccc(C(F)(F)F)nc21 (racemic),980
21,CC[C@@H]1C[C@H](N(C#N)Cc2cc(C(F)(F)F)cc(C(F)(F)F)c2)c2nc(C(F)(F)F)ccc2N1C(=O)OC(C)C (racemic),> 5000
22,CC[C@@H]1C[C@H](N(Cc2cc(C(F)(F)F)cc(C(F)(F)F)c2)c2nnn[nH]2)c2nc(C(F)(F)F)ccc2N1C(=O)OC(C)C (racemic),> 50000
23,CC[C@@H]1C[C@H](N(Cc2cc(C(F)(F)F)cc(C(F)(F)F)c2)c2nnnn2C)c2nc(C(F)(F)F)ccc2N1C(=O)OC(C)C (racemic),> 50000

# Stronger by IC50, values ahead:
row,IC50 [nM],Structure (SMILES)
1,31,CC[C@@H]1C[C@H](N(Cc2cc(C(F)(F)F)cc(C(F)(F)F)c2)c2nnn(C)n2)c2nc(N(C)C)ccc2N1C(=O)OC(C)C
2,98,CC[C@@H]1C[C@H](N(Cc2cc(C(F)(F)F)cc(C(F)(F)F)c2)c2nnn(C)n2)c2nc(N)ccc2N1C(=O)OC(C)C
3,142,CC[C@@H]1C[C@H](N(Cc2cc(C(F)(F)F)cc(C(F)(F)F)c2)c2nnn(C)n2)c2nc(NC)ccc2N1C(=O)OC(C)C
4,20,CC[C@@H]1C[C@H](N(Cc2cc(Cl)cc(C(F)(F)F)c2)c2nnn(C)n2)c2nc(C(F)(F)F)ccc2N1C(=O)OC(C)C
5,12,CC[C@@H]1C[C@H](N(Cc2cc(Cl)cc(C(F)(F)F)c2)c2nnn(C)n2)c2nc(C)ccc2N1C(=O)OC(C)C
6,21,CC[C@@H]1C[C@H](N(Cc2cc(C#N)cc(C(F)(F)F)c2)c2nnn(C)n2)c2nc(C)ccc2N1C(=O)OC(C)C
7,30,CC[C@@H]1C[C@H](N(Cc2cc(F)cc(C(F)(F)F)c2)c2nnn(C)n2)c2nc(C)ccc2N1C(=O)OC(C)C
8,24,CC[C@@H]1C[C@H](N(Cc2cc(Cl)cc(Cl)c2)c2nnn(C)n2)c2nc(C)ccc2N1C(=O)OC(C)C
9,207,CC[C@@H]1C[C@H](N(Cc2cc(Cl)cc(Cc3cncc(C(F)(F)F)c3)c2)c2nnn(C)n2)c2nc(C(F)(F)F)ccc2N1C(=O)OC(C)C
10,197,CC[C@@H]1C[C@H](N(Cc2cc(C(F)(F)F)cc(C(F)(F)F)c2)c2nnn(C)n2)c2nc(C(F)(F)F)ccc2N1C(=O)OC
11,29,CCOC(=O)N1c2ccc(C(F)(F)F)nc2[C@@H](N(Cc2cc(C(F)(F)F)cc(C(F)(F)F)c2)c2nnn(C)n2)C[C@H]1CC
12,108,CC[C@@H]1C[C@H](N(Cc2cc(C(F)(F)F)cc(C(F)(F)F)c2)c2nnn(C)n2)c2nc(C(F)(F)F)ccc2N1C(=O)OCCO
13,139,CC[C@@H]1C[C@H](N(Cc2cc(C(F)(F)F)cc(C(F)(F)F)c2)c2nnn(C)n2)c2nc(C(F)(F)F)ccc2N1C(=O)OCC(C)(C)C(=O)O
14,66,CC[C@@H]1C[C@H](N(Cc2cc(C(F)(F)F)cc(C(F)(F)F)c2)c2nnn(C)n2)c2nc(C(F)(F)F)ccc2N1C(=O)OC1CCOCC1
15,72,CC[C@@H]1C[C@H](N(Cc2cc(C(F)(F)F)cc(C(F)(F)F)c2)c2nnn(C)n2)c2nc(C(F)(F)F)ccc2N1C(=O)OC1CCN(C)CC1
16,55,CC[C@@H]1C[C@H](N(Cc2cc(C(F)(F)F)cc(C(F)(F)F)c2)c2nnn(C)n2)c2nc(C(F)(F)F)ccc2N1C(=O)C(C)C

row,IC50 [nM],Structure (SMILES)
1,114,CCCC(=O)N1c2ccc(C(F)(F)F)nc2[C@@H](N(Cc2cc(C(F)(F)F)cc(C(F)(F)F)c2)c2nnn(C)n2)C[C@H]1CC
2,193,CC[C@@H]1C[C@H](N(Cc2cc(C(F)(F)F)cc(C(F)(F)F)c2)c2nnn(C)n2)c2nc(C(F)(F)F)ccc2N1C(=O)c1c(C)cnn1C
3,205,CC[C@@H]1C[C@H](N(Cc2cc(C(F)(F)F)cc(C(F)(F)F)c2)c2nnn(C)n2)c2nc(C(F)(F)F)ccc2N1CC(C)C
4,74,CC[C@@H]1C[C@H](N(Cc2cc(C(F)(F)F)cc(C(F)(F)F)c2)c2noc(C)n2)c2nc(C(F)(F)F)ccc2N1C(=O)OC(C)C (racemic)
5,203,CC[C@@H]1C[C@H](N(Cc2cc(C(F)(F)F)cc(C(F)(F)F)c2)c2cc(C)n[nH]2)c2nc(C(F)(F)F)ccc2N1C(=O)OC(C)C (racemic)
6,154,CC[C@@H]1C[C@H](N(Cc2cc(C(F)(F)F)cc(C(F)(F)F)c2)c2cc(C)no2)c2nc(C(F)(F)F)ccc2N1C(=O)OC(C)C (racemic)
7,49,CC[C@@H]1C[C@H](N(Cc2cc(C(F)(F)F)cc(C(F)(F)F)c2)c2nnn(C)n2)c2nc(C(F)(F)F)ccc2N1C(=O)OC(C)C (racemic)
8,134,CC[C@@H]1C[C@H](N(Cc2cc(C(F)(F)F)cc(C(F)(F)F)c2)c2nnn(C)n2)c2nc(OC)ccc2N1C(=O)OC(C)C (racemic)
9,47,CC[C@@H]1C[C@H](N(Cc2cc(C(F)(F)F)cc(C(F)(F)F)c2)c2nnn(C)n2)c2nc(Br)ccc2N1C(=O)OC(C)C (racemic)
10,61,CC[C@@H]1C[C@H](N(Cc2cc(C(F)(F)F)cc(C(F)(F)F)c2)c2nnn(C)n2)c2nc(C)ccc2N1C(=O)OC(C)C (racemic)
11,66,CC[C@@H]1C[C@H](N(Cc2cc(C(F)(F)F)cc(C(F)(F)F)c2)c2nnn(CCN)n2)c2nc(C(F)(F)F)ccc2N1C(=O)OC(C)C (racemic)
12,44,CC[C@@H]1C[C@H](N(Cc2cc(C(F)(F)F)cc(C(F)(F)F)c2)c2nnn(CCO)n2)c2nc(C(F)(F)F)ccc2N1C(=O)OC(C)C (racemic)
13,38.4,CC[C@@H]1C[C@H](N(Cc2cc(C(F)(F)F)cc(C(F)(F)F)c2)c2nnn(C)n2)c2nc(OC)c(C)cc2N1C(=O)OC(C)C (racemic)
14,106,CC[C@@H]1C[C@H](N(Cc2cc(C(F)(F)F)cc(C(F)(F)F)c2)c2nnn(C)n2)c2nc(N)c(C)cc2N1C(=O)OC(C)C (racemic)
15,24,CCOC(=O)N1c2c(C)cc(C(F)(F)F)nc2[C@@H](N(Cc2cc(C(F)(F)F)cc(C(F)(F)F)c2)c2nnn(C)n2)C[C@H]1CC (racemic)
16,26,Cc1cc(C)c2c(c1)[C@@H](N(Cc1cc(C(F)(F)F)cc(C(F)(F)F)c1)c1nnn(C)n1)CCCN2C[C@H]1CC[C@H](C(=O)O)CC1 [EVACETRAPIB]
